Reference: article PMC9664070, “The anticonvulsant phytocannabinoids CBGVA and CBDVA inhibit recombinant T-type channels” (Frontiers in Pharmacology, 2022)
pIC50: −log10 of the molar value.

Key:
[1] = tested on: hyperthermia-induced seizures; parameters: method as in earlier work; settings: Scn1a+/- mice, ref Anderson et al., 2019, 2021a, 2021b; cited from earlier work
Cav3.3 = target: T1, Cav3.3 (Homo sapiens, UniProt Q9P0X4); experiment: FLIPR calcium 5 assay, inhibition of 10 mM Ca-induced fluorescence; assay type: cell-based; settings: 10 µM compound, HEK293 cells, mean ± SEM
T1 construct: expressed in transfected cells; host or cells: HEK293 Flp-In T-REx
Description: (§1) Calcium 5 dye (Molecular Devices, United States ) was used to investigate compound activities at T-type calcium channels using Flexstation III. HEK293 cells overexpressing Cav3.1, Cav 3.2, and Cav 3.3 cells were resuspended in Leibovitz’s L-15 media containing 1% FBS, 1% P/S and 15 mM glucose. 90 µl of the resuspended cells (120,000 cells/well) were plated in a black-walled, 96-well microplate (Corning, NY, United States ) and incubated overnight in humidified air at 37°C. Channel expression was induced with tetracycline (2 μg/ml, Sigma-Aldrich) at plating. On the day of the assay, 90 µl of HBSS containing 5% Calcium dye (bulk kit) and 2.5 mM probenecid (Invitrogen, United States ) was added to each well and incubated for 1 h at 37°C. Change in fluorescence was measured in a FlexStation III plate reader every 2 s (ʎexcitation = 485 nm, ʎemission = 525 nm) for the duration of the experiment at 37°C. After 2 min baseline recording, drugs (20 µL) were added and read for 5 min, followed by 10 mM CaCl2 (20 µl) and read for a further 3 min.
(§2) Unless otherwise stated, five independent experiments were performed for each condition, with each experiment conducted in duplicate. For the calcium assay, change in fluorescence by 10 mM Ca in the presence of drugs was normalised to change in fluorescence caused by 10 mM Ca in the presence of vehicle only to allow for comparison. In the Alphascreen assay, results were normalised to EC80 of ML-186 after subtraction of basal ERK phosphorylation (presence of a vehicle and 0.2% DMSO) to allow for easy comparison between phytocannabinoid activities. We fitted all concentration-response curves to a 4-parameter sigmoidal inhibitory response curve in GraphPad Prism (Version 6 GraphPad Software Inc., CA, United States) to derive IC50 and Emax values. All statistical analyses were conducted with GraphPad Prism. Two-tailed, unpaired t-tests were used to compare two data points and one-way ANOVA for more than two data points with Tukey post-hoc analysis. p-values < 0.05 were considered statistically significant.
(§3) Our investigation of T-type channels began with a single-point screen, as described by [Bladen et al. (2021)]. We screened the inhibitory effect of 10 µM phytocannabinoids on the change in fluorescence elicited by the addition of 10 mM Ca^2+ in cells expressing Cav3.1, Cav3.2 or Cav3.3 channels ([Xie et al., 2007]; [Bladen et al., 2021]).

Cav3.1 [2] = target: T2, Cav3.1 (Homo sapiens, UniProt O43497); experiment: as above; assay type: cell-based; settings: 10 µM compound, 10 mM Ca-induced fluorescence, HEK293 cells, mean ± SEM
T2 construct: expressed in transfected cells; host or cells: HEK293 Flp-In T-REx
Description: as §1, §2, §3

Cav3.2 [3] = target: T3, Cav3.2 (Homo sapiens, UniProt O95180); experiment: as above; assay type: cell-based; settings: for % Inhibition of Fluorescence Cav3.2: 10 µM compound, 10 mM Ca-induced fluorescence, HEK293 cells, mean ± SEM
T3 construct: expressed in transfected cells; host or cells: HEK293 Flp-In T-REx
Description: as §1, §2, §3

Cav3.2 [4] = tested on: Cav3.2; parameters: method as in Ross et al., 2008; settings: ref Ross et al., 2008; read-out: IC50, inhibition of peak Cav3.2 currents; cited from earlier work
Cav3.1 [5] = tested on: Cav3.1; parameters: method as in Ross et al., 2008; settings: ref Ross et al., 2008; read-out: IC50, inhibition of peak Cav3.1 currents; cited from earlier work

T3 sequence (O95180 whole entry): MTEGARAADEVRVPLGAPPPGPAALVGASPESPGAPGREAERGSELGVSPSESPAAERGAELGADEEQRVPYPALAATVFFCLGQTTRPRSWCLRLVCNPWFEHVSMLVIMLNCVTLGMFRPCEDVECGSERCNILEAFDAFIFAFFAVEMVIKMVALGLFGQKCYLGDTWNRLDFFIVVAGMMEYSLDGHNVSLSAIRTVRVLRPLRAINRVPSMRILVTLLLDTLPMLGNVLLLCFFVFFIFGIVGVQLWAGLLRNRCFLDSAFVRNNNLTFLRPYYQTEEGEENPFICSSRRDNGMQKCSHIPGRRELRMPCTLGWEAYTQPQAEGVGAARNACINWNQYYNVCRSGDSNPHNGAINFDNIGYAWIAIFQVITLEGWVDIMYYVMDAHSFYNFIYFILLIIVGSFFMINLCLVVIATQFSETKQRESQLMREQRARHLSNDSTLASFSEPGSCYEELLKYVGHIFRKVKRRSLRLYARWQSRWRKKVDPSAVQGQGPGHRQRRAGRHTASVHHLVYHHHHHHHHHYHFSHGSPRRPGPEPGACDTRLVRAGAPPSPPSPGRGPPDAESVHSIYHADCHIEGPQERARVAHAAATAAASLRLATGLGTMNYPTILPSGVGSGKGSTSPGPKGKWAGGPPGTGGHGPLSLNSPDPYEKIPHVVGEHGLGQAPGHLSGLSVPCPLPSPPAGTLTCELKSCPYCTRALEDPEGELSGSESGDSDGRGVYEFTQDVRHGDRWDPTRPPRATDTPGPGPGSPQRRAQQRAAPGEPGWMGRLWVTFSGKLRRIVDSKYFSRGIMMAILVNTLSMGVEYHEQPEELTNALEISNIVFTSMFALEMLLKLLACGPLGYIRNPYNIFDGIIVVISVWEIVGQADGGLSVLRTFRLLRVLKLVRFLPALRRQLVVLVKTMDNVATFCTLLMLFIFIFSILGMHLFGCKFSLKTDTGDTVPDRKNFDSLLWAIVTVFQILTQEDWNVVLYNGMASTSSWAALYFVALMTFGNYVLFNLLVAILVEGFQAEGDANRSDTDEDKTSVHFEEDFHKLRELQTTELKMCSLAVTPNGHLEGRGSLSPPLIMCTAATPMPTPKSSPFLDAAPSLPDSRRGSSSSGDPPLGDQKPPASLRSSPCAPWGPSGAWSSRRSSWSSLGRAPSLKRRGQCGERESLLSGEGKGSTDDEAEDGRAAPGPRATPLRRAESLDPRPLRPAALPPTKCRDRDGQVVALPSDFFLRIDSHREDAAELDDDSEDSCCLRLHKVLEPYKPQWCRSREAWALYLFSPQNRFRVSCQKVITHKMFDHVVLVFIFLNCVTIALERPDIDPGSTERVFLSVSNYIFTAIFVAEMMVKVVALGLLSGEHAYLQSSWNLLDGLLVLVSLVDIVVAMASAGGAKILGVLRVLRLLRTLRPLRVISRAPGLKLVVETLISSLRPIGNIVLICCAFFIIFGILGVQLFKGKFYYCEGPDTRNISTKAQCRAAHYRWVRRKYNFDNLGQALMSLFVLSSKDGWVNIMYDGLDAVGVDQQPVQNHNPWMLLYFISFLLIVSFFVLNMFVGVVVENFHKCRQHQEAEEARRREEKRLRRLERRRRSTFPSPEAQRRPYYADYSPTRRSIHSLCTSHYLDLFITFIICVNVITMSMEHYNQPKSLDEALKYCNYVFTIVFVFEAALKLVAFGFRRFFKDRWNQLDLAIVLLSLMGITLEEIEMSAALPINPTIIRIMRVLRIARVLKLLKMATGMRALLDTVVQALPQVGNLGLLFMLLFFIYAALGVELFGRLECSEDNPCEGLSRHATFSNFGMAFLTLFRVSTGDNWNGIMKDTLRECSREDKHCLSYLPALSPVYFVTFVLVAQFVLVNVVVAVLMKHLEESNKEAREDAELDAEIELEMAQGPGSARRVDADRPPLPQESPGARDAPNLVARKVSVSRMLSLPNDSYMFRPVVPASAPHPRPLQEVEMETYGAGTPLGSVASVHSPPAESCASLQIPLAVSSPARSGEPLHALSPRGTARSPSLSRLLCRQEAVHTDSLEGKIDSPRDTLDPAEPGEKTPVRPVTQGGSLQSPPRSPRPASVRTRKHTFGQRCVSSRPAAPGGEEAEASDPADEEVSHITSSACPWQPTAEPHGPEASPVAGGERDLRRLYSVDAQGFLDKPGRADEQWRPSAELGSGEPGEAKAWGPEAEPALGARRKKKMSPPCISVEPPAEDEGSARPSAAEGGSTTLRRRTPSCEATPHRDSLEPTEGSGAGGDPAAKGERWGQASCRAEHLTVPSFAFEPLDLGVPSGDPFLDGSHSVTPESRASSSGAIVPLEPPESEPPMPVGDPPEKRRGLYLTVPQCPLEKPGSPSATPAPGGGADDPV
T1 sequence (Q9P0X4 whole entry): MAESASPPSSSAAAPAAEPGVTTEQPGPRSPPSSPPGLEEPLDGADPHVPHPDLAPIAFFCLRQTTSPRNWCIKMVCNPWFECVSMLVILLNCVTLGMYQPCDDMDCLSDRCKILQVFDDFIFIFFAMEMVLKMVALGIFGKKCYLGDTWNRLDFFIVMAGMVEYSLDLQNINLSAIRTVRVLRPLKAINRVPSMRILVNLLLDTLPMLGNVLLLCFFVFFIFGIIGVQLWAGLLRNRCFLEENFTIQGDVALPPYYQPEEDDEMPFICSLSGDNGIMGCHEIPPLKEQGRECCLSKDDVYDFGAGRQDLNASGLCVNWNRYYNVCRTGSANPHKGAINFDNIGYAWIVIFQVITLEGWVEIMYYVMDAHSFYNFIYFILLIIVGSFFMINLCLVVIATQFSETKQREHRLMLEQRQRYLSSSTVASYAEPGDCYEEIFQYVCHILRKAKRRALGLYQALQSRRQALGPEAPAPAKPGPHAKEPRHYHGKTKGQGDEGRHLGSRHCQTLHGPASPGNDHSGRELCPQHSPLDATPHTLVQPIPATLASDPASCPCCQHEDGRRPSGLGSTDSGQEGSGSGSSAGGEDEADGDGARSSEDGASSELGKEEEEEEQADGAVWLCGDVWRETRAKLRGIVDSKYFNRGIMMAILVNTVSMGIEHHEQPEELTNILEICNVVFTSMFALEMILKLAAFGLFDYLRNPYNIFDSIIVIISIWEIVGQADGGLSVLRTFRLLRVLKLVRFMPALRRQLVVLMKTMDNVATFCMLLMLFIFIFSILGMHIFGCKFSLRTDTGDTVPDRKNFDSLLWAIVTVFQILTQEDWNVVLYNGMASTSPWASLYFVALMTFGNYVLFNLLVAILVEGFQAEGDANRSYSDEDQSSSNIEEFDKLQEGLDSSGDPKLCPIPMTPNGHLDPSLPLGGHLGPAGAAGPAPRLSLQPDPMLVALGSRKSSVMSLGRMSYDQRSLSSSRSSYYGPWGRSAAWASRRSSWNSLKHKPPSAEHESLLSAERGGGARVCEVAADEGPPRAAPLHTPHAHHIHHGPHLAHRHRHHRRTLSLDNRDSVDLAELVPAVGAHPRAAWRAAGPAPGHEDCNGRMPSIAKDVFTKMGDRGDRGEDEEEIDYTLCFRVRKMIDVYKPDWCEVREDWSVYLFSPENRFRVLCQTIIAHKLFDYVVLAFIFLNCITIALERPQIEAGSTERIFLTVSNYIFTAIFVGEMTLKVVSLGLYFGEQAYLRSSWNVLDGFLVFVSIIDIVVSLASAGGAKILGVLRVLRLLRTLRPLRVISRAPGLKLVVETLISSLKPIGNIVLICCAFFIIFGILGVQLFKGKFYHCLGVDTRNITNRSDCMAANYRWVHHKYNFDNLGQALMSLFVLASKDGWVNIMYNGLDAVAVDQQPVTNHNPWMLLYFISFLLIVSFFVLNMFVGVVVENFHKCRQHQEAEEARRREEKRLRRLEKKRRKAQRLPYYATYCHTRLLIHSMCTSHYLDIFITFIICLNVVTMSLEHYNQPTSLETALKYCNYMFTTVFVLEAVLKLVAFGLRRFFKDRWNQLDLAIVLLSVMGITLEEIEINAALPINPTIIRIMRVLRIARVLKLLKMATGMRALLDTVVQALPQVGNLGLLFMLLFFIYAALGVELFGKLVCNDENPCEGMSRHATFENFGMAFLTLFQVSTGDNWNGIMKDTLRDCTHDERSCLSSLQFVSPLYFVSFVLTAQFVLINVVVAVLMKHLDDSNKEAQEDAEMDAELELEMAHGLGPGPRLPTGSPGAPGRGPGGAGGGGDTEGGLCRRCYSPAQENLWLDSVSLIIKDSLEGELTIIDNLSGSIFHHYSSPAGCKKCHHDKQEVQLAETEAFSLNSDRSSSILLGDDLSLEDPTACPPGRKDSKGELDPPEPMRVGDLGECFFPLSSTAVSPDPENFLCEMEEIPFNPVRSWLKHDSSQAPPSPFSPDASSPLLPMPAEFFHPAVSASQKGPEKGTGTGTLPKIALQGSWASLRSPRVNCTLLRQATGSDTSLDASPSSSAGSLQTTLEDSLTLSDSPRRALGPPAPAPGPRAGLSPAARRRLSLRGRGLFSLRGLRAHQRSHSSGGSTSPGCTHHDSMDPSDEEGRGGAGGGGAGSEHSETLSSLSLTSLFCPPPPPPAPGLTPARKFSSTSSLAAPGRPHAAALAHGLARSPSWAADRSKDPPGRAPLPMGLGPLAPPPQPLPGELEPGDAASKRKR

CCCCCc1cc2c(c(O)c1C(=O)O)C=CC(C)(CCC=C(C)C)O2 (stereo not drawn) [CBCA, cannabichromenic acid]
effect against hyperthermia-induced seizures [1]: anticonvulsant | % Inhibition of Fluorescence Cav3.3 (Cav3.3): 11 ± 10% | % Inhibition of Fluorescence Cav3.1 (Cav3.1 [2]): 59 ± 9%

CCCc1cc2c(c(O)c1C(=O)O)C=CC(C)(CCC=C(C)C)O2 (stereo not drawn) [CBCVA, cannabichrovarinic acid]
effect against hyperthermia-induced seizures [1]: anticonvulsant | % Inhibition of Fluorescence Cav3.2 (Cav3.2 [3]): 62 ± 8% | % Inhibition of Fluorescence Cav3.3 (Cav3.3): 34 ± 12% | % Inhibition of Fluorescence Cav3.1 (Cav3.1 [2]): 51 ± 8%

CCCc1cc(O)c2c(c1)OC(C)(CCC=C(C)C)C=C2 (stereo not drawn) [CBCV]
% Inhibition of Fluorescence Cav3.2 (Cav3.2 [3]): -37 ± 21% | effect on influx of Ca2+ ions in cells expressing Cav3.2 (Cav3.2 [3]; 10 µM, FLIPR): appeared to increase the influx of Ca^2+ ions | % Inhibition of Fluorescence Cav3.3 (Cav3.3): 1 ± 1%

C=C(C)[C@@H]1CCC(C)=C[C@H]1c1c(O)cc(CCCCC)cc1O [CBD, cannabidiol]
pIC50 (Cav3.2 [4]): ~6.00 | pIC50 (Cav3.1 [5]): ~6.00
